Tests used:
Assay in all cases: relative viability (nuclei count vs DMSO), 5 days (fraction); higher = more cells survive
[1] = compound: O=c1cc(-c2cccc3c2Sc2ccccc2S3)oc(N2CCOCC2)c1
Summary of the method: (§1)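 Hoechst staining, done together with fixation and permeabilisation, marked nuclei for 4× imaging and MetaXpress counting. This followed 5 days without medium change after lung cancer cell lines, kept overnight at 37 °C in 1536-well plates, were pinned with five library-drug doses (not always all listed) spaced by √10 on vehicle-anchored plates. Viability is the ratio of treated-well to vehicle-well nuclei, expressed as a median across plates. Plates passed only at control CV below 25% with at least one doubling.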

[2] = compound: CCN(CC)CCCCNc1ncc2cc(-c3cc(OC)cc(OC)c3)c(NC(=O)NC(C)(C)C)nc2n1
Summary of the method: as §1

PRIMA-1MET = compound: COCC1(CO)C(=O)C2CCN1CC2 [PRIMA-1MET]
Summary of the method: as §1

Zibotentan = compound: COc1nc(C)cnc1NS(=O)(=O)c1cccnc1-c1ccc(-c2nnco2)cc1 [Zibotentan]
Summary of the method: as §1

[3] = compound: C1COCCN1C2=CC(=O)C3=C(O2)C(=CC=C3)C4=CC=CC5=C4SC6=CC=CC=C56
Summary of the method: as §1

Cell Line | relative viability ([1]; 0.08 µM) | relative viability ([1]; 0.253 µM) | relative viability ([1]; 0.8 µM) | relative viability ([1]; 2.53 µM) | relative viability ([1]; 8 µM) | relative viability ([2]; 0.01 µM) | relative viability ([2]; 0.03162 µM) | relative viability ([2]; 0.1 µM) | relative viability ([2]; 0.3162 µM) | relative viability ([2]; 1 µM) | relative viability (PRIMA-1MET; 0.2 µM) | relative viability (PRIMA-1MET; 0.6325 µM) | relative viability (PRIMA-1MET; 2 µM) | relative viability (PRIMA-1MET; 6.325 µM) | relative viability (PRIMA-1MET; 20 µM) | relative viability (Zibotentan; 0.08 µM) | relative viability (Zibotentan; 0.253 µM) | relative viability (Zibotentan; 0.8 µM) | relative viability (Zibotentan; 2.53 µM) | relative viability ([3]; 0.01 µM) | relative viability ([3]; 0.03162 µM) | relative viability ([3]; 0.1 µM) | relative viability ([3]; 0.3162 µM) | relative viability ([3]; 1 µM)
NCI-H3122 | 1.01 | 1.02 | 1.03 | 1.03 | 1.08 | 1.02 | 1.04 | 1.07 | 1.1 | 0.967 | 0.85 | 0.972 | 0.948 | 1.01 | 1 | 1.02 | 1.01 | 0.978 | 0.98 | 1.01 | 0.988 | 1.01 | 0.961 | 1.01
LXF-289 | 1.01 | 1.03 | 1.02 | 0.99 | 1.02 | 1.01 | 1.02 | 1.06 | 1.02 | 0.844 | 1.08 | 0.983 | 1.16 | 1.04 | 0.942 | 1.02 | 1.01 | 1.02 | 1.01 | 1.05 | 1.01 | 1.03 | 1.01 | 1.07
NCI-H1299 | 1.02 | 1.02 | 1.04 | 1.02 | 1.01 | 1.03 | 1.06 | 1.09 | 1.06 | 1.02 | 1.08 | 1.03 | 1.03 | 1.02 | 0.977 | 1.02 | 1.02 | 0.998 | 1.02 | 1.01 | 0.987 | 1.02 | 0.994 | 1.01
LOU-NH91 | 0.92 | 1.02 | 0.868 | 0.79 | 0.981 | 0.91 | 0.975 | 1.03 | 1.12 | 0.949 | 1.15 | 0.894 | 0.81 | 0.999 | 0.655 | 0.969 | 0.876 | 1.01 | 1.08 | 0.905 | 0.974 | 0.928 | 1.1 | 0.92
A549 | 0.946 | 1.22 | 1.1 | 0.991 | 1.07 | 0.927 | 0.97 | 1.15 | 1.06 | 0.876 | 1.1 | 0.893 | 0.944 | 1.01 | 0.891 | 1.04 | 0.938 | 0.931 | 1 | 1.01 | 0.96 | 1.01 | 0.973 | 0.914
NCI-H1755 | 0.96 | 1.03 | 1.05 | 1.06 | 1.05 | 1.04 | 1.05 | 1.08 | 1.1 | 1.01 | 1.04 | 0.928 | 0.85 | 1.07 | 0.999 | 0.972 | 0.987 | 0.926 | 0.977 | 1.03 | 1.01 | 0.986 | 0.994 | 0.985

Source: the supplement of paper PMC10307832
